# Columns and labels:
# B1 bradykinin receptor = biological target: T1, B1 bradykinin receptor (Homo sapiens, UniProt P46663); assay: Binding affinity against Human bradykinin receptor B1
# T1 sequence (P46663 whole entry): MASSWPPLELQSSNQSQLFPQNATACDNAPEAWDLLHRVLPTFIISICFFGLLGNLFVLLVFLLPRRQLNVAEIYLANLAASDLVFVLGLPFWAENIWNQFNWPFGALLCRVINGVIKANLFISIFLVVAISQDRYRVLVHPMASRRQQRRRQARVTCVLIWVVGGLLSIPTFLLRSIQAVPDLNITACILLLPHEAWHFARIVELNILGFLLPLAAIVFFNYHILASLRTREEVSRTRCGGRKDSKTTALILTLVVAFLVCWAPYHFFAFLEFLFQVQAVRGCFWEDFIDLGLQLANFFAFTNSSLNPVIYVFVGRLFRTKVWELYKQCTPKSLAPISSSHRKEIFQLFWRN
# [1] = Partition coefficient (logP); conditions: octanol/water
# [2] = Half life in Sprague Dawley rats; type: ADME; conditions: rat, in vivo
# [3] = Protein binding using 10% human serum; type: ADME; conditions: for fraction unbound: 10% human serum, read-out: Protein binding (converted)
# [4] = Clearance in Sprague Dawley rats; type: ADME, organism-based; conditions: rat, in vivo
# [5] = Volume of distribution was determined in Sprague Dawley rats; type: ADME, organism-based; conditions: rat, in vivo
# [6] = Bioavailability of compound upon oral administration of 10 mg/kg (dose) in Sprague Dawley rat; type: ADME, organism-based; conditions: in vivo
Structure (SMILES),Ki (B1 bradykinin receptor),logP ([1]; logP),fraction unbound [3],other results
Cc1noc([C@H]2CC=CC[C@@H]2c2ccc(CNc3nccc(C)c3NC(=O)CC#N)cc2)n1,2 nM,2.4,0.08,half-life [2]: 1.2 h; clearance [4]: 17 mL/min/kg; Vd [5]: 0.47 L/kg; bioavailability [6]: 18%
COC(=O)C1C2CCC(C2)C1c1ccc(CNc2nccc(C)c2NC(=O)CC#N)cc1 (racemic),730 nM,–,–,–
COC(=O)C1C2CCC(CC2)C1c1ccc(CNc2nccc(C)c2NC(=O)CC#N)cc1 (racemic),54 nM,–,–,logP [1]: 3.4
COC(=O)C1CC=CCC1c1ccc(CNc2nccc(C)c2NC(=O)CC#N)cc1 (racemic; cis),7 nM,–,–,Protein binding ([3]; serum): 96%; logP [1]: 3.3
COC(=O)C1C2C=CC(CC2)C1c1ccc(CNc2nccc(C)c2NC(=O)CC#N)cc1 (racemic; form 1),142 nM,–,–,logP [1]: 3.1
COC(=O)C1C2C=CC(CC2)C1c1ccc(CNc2nccc(C)c2NC(=O)CC#N)cc1 (racemic; form 2),38 nM,–,–,–
COC(=O)C1CC=CCC1c1ccc(CNc2nccc(C)c2NC(=O)CC#N)cc1 (racemic; trans),0.83 nM,2.7,0.04,half-life [2]: 1 h; clearance [4]: 29 mL/min/kg; Vd [5]: 0.55 L/kg; bioavailability [6]: 5%
"COC(=O)C1CC=CCC1c1ccc(CNc2nccc(C)c2NC(=O)CC#N)cc1 (single isomer, unassigned; (+))",1.3 nM,–,–,logP [1]: 2.3
COC(=O)C1CC=CCC1c1ccc(CNc2nccc(C)c2NC(=O)CC#N)cc1 (stereo in doubt; (-)18),1 nM,–,–,logP [1]: 2.4

# The next lines start with results.
Ki (B1 bradykinin receptor),logP ([1]; logP),fraction unbound [3],Structure (SMILES),other results
385 nM,2.7,–,COC(=O)c1ccccc1C1CCC(CNc2nccc(C)c2NC(=O)CC#N)CC1 (stereo unspecified),–
11 nM,2.5,0.01,COC(=O)c1ccccc1-c1ccc(CNc2nccc(C)c2NC(=O)CC#N)cc1,half-life [2]: 1.9 h; clearance [4]: 4.3 mL/min/kg; Vd [5]: 0.36 L/kg; bioavailability [6]: 18%
130 nM,–,–,COC(=O)c1ccccc1N1CC=C(CNc2nccc(C)c2NC(=O)CC#N)CC1,–
35 nM,3,0.04,COC(=O)C1=C(c2ccc(CNc3nccc(C)c3NC(=O)CC#N)cc2)CCCC1,–
13 nM,2.1,0.07,COC(=O)c1ccccc1N1CCC(CNc2nccc(C)c2NC(=O)CC#N)CC1,–
> 5000 nM,–,–,COC(=O)N1CCCCC1c1ccc(CNc2nccc(C)c2NC(=O)CC#N)cc1 (stereo unspecified),–
> 5000 nM,2.7,0.22,COC(=O)C1CCCCN1c1ccc(CNc2nccc(C)c2NC(=O)CC#N)cc1 (stereo unspecified),–
3500 nM,2.6,0.1,COC(=O)c1ccccc1N1CCC(C)(CNc2nccc(C)c2NC(=O)CC#N)CC1,–
> 5000 nM,–,0.35,COC(=O)c1ccccc1N1CCC(O)(CNc2nccc(C)c2NC(=O)CC#N)CC1,half-life [2]: 3 h; clearance [4]: 2.2 mL/min/kg; Vd [5]: 0.24 L/kg; bioavailability [6]: 22%
> 5000 nM,–,–,COC(=O)C1CCCN1c1ccc(CNc2nccc(C)c2NC(=O)CC#N)cc1 (stereo unspecified),–
126 nM,–,–,COC(=O)C1=C(c2ccc(CNc3nccc(C)c3NC(=O)CC#N)cc2)CCC1,–
250 nM,2.4,0.19,COC(=O)c1cccn1-c1ccc(CNc2nccc(C)c2NC(=O)CC#N)cc1,–
25 nM,2.5,0.01,COC(=O)c1ccccc1C1=CCC(CNc2nccc(C)c2NC(=O)CC#N)CC1 (stereo unspecified),–
2.2 nM,2.7,0.05,COC(=O)C1CCCCC1c1ccc(CNc2nccc(C)c2NC(=O)CC#N)cc1 (racemic),half-life [2]: 0.5 h; clearance [4]: 30 mL/min/kg; Vd [5]: 0.38 L/kg; bioavailability [6]: 4%

# From ChEMBL document CHEMBL1142801, “Bradykinin B1 antagonists: SAR studies in the 2,3-diaminopyridine series” (Bioorg Med Chem Lett, 2005)
